ChEMBL document CHEMBL5113375, “Development of Mcl-1 inhibitors for cancer therapy” (Eur J Med Chem, 2021)

Tests used:
[1] = biological target: T1, Induced myeloid leukemia cell differentiation protein Mcl-1/BH3-interacting domain death agonist (Homo sapiens, UniProt Q07820); assay: Inhibition of Mcl-1/Bid (unknown origin) by fluorescence polarization assay; assay type: protein assay
[2] = biological target: T2, Induced myeloid leukemia cell differentiation protein Mcl-1 (Homo sapiens, UniProt Q07820); assay: Binding affinity to Mcl-1 (unknown origin)
[3] = biological target: T3, Bcl-xL/BH3-interacting domain death agonist (Homo sapiens, UniProt Q07817); assay: Inhibition of Bcl-xL/Bid (unknown origin) by fluorescence polarization assay; assay type: protein assay
[4] = biological target: T1, Induced myeloid leukemia cell differentiation protein Mcl-1/BH3-interacting domain death agonist; assay: Binding affinity to Mcl-1/Bid (unknown origin) incubated for 3 hrs by fluorescence polarization-based binding assay; assay type: protein assay
[5] = biological target: T4, BCL2A1/BID (Homo sapiens, UniProt Q16548); assay: Binding affinity to Bfl-1/Bid (unknown origin) incubated for 3 hrs by fluorescence polarization-based binding assay; assay type: protein assay
T4 sequence (Q16548 whole entry): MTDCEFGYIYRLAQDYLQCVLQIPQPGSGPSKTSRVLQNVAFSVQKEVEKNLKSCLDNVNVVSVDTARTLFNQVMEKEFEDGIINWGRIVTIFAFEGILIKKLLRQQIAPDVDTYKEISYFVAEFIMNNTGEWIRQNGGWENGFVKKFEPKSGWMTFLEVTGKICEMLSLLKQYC
T4 sequence (P55957 whole entry): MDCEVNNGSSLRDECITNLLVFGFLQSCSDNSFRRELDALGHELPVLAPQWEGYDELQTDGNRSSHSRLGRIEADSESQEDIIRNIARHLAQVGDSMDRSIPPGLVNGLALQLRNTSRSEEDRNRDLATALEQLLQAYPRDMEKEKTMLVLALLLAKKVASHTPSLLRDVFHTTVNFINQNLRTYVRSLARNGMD

[6] = biological target: T1, Induced myeloid leukemia cell differentiation protein Mcl-1/BH3-interacting domain death agonist; assay: Binding affinity to Mcl-1/Bid (unknown origin) assessed as inhibition constant by fluorescence polarization assay; assay type: protein assay
[7] = biological target: T4, BCL2A1/BID; assay: Binding affinity to Bfl-1/Bid (unknown origin) by fluorescence polarization assay; assay type: protein assay
[8] = biological target: T2, Induced myeloid leukemia cell differentiation protein Mcl-1; assay: Binding affinity to Mcl-1 (unknown origin) assessed as inhibition constant by fluorescence polarization assay
[9] = biological target: T5, BCL2/BID (Homo sapiens, UniProt P10415); assay: Binding affinity to Bcl-2/Bid (unknown origin) by fluorescence polarization assay; assay type: protein assay
[10] = biological target: T3, Bcl-xL/BH3-interacting domain death agonist; assay: Binding affinity to Bcl-xL/Bid (unknown origin) by fluorescence polarization assay; assay type: protein assay
[11] = biological target: T6, BCL2L2/BID (Homo sapiens, UniProt P55957+Q92843); assay: Binding affinity to Bcl-W/Bid (unknown origin) by fluorescence polarization assay; assay type: protein assay
T6 sequence (Q92843 whole entry): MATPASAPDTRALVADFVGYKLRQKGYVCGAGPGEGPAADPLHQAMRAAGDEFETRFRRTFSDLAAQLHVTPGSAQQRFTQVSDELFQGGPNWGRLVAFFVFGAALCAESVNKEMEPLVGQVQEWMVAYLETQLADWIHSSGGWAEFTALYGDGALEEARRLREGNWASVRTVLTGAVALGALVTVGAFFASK
T6 sequence (P55957 whole entry): T4 sequence (P55957 whole entry)

[12] = Inhibition of Bak/Bcl-xL (unknown origin) protein protein interaction by fluorescence polarization assay; set-up: species or system Homo sapiens
[13] = biological target: T7, MCL1-BAK1 complex (Homo sapiens, UniProt Q07820); assay: Inhibition of Bak/Mcl-1 (unknown origin) protein protein interaction by fluorescence polarization assay; assay type: protein-complex assay
[14] = Binding affinity to Bak/Bcl-xL (unknown origin) protein protein interaction by fluorescence polarization assay; set-up: species or system Homo sapiens
[15] = tested on: MCF7; assay: Induction of apoptosis in Bcl-2 dependent human MCF7 cells treated for 48 hrs by Annexin V-FITC staining based flow cytometric analysis; assay type: functional, cell-based; conditions: MCF7, 48 h
[16] = Induction of apoptosis in Mcl-1 dependent […] cells treated for 48 hrs by Annexin V-FITC staining based flow cytometric analysis; assay type: functional, cell-based; conditions: Mus musculus, H22, 48 h
[17] = biological target: T8, Bcl-xL/BAK (Homo sapiens, UniProt Q07817); assay: Inhibition of Bcl-xL/Bak (unknown origin) by fluorescence polarization assay; assay type: protein assay
[18] = biological target: Induced myeloid leukemia cell differentiation protein Mcl-1/Bcl-2-like protein 11 (Homo sapiens, UniProt Q07820); assay: Inhibition of Mcl-1/Bim (unknown origin) by fluorescence polarisation assay; assay type: protein assay
[19] = biological target: Bcl-xL/Bcl-2-like protein 11 (Homo sapiens, UniProt Q07817); assay: Binding affinity to GST-tagged Bcl-xL/5-FAM-tagged Bim (unknown origin) assessed as inhibition constant by fluorescence polarization assay; assay type: protein assay
[20] = biological target: T5, BCL2/BID; assay: Binding affinity to human Bcl-2 (29 to 44 residues)/5-FAM-tagged Bid (unknown origin) assessed as inhibition constant by fluorescence polarization assay; assay type: protein assay
[21] = biological target: T1, Induced myeloid leukemia cell differentiation protein Mcl-1/BH3-interacting domain death agonist; assay: Binding affinity to human N-terminal 8xHis tagged Mcl-1/5-FAM-tagged Bid (unknown origin) assessed as inhibition constant by fluorescence polarization assay; assay type: protein assay
[22] = biological target: T8, Bcl-xL/BAK; assay: Inhibition of Bcl-xL/Bak (unknown origin); assay type: protein assay
[23] = biological target: Apoptosis regulator Bcl-2/Bcl-2 homologous antagonist/killer (Homo sapiens, UniProt P10415+Q16611); assay: Inhibition of Bcl-2/Bak (unknown origin); assay type: protein assay
[24] = biological target: T7, MCL1-BAK1 complex; assay: Inhibition of Mcl-1/Bak (unknown origin); assay type: protein-complex assay
[25] = biological target: T9, BCL2A1/BAK1 (Homo sapiens, UniProt Q16548+Q16611); assay: Inhibition of Bfl-1/Bak (unknown origin); assay type: protein assay
T9 sequence (Q16611 whole entry): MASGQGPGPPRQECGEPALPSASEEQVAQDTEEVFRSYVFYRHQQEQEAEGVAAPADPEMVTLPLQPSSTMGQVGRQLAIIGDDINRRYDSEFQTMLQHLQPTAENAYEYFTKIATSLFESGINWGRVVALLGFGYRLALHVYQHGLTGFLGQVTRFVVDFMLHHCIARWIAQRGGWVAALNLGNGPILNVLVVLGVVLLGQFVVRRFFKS
T9 sequence (Q16548 whole entry): T4 sequence (Q16548 whole entry)

[26] = biological target: T1, Induced myeloid leukemia cell differentiation protein Mcl-1/BH3-interacting domain death agonist; assay: Inhibition of Mcl-1/FITC-labelled Bid (unknown origin) protein protein interaction incubated for 20 to 60 mins by fluorescence polarisation binding assay
[27] = biological target: T2, Induced myeloid leukemia cell differentiation protein Mcl-1; assay: Binding affinity to Mcl-1 (unknown origin) assessed as inhibition constant
[28] = biological target: Apoptosis regulator Bcl-2 (Homo sapiens, UniProt P10415); assay: Binding affinity to Bcl-2 (unknown origin) assessed as inhibition constant
[29] = biological target: Bcl-2-like protein 1 (Homo sapiens, UniProt Q07817); assay: Binding affinity to Bcl-xL (unknown origin) assessed as inhibition constant
[30] = biological target: T8, Bcl-xL/BAK; assay: Binding affinity to human Bcl-xL/Bak (unkown origin) incubated for 1 hr by fluorescence polarization assay; assay type: protein assay
[31] = Binding affinity to mouse Mcl-1/Bak (unkown origin) incubated for 1 hr by fluorescence polarization assay
[32] = biological target: T8, Bcl-xL/BAK; assay: Binding affinity to Bcl-xL/Bak (unknown origin) assessed as inhibition constant by fluorescence polarization assay; assay type: protein assay
[33] = biological target: T7, MCL1-BAK1 complex; assay: Binding affinity to Mcl-1/Bak (unknown origin) assessed as inhibition constant by fluorescence polarization assay; assay type: protein-complex assay
[34] = biological target: T8, Bcl-xL/BAK; assay: Binding affinity to Bcl-xL/Bak (unknown origin) assessed as dissociation constant by ITC method; assay type: protein assay
[35] = biological target: BCL2/BAD (Homo sapiens, UniProt P10415); assay: Binding affinity to Bcl-2/Bad (unknown origin) assessed as inhibition constant by fluorescence polarisation assay; assay type: protein assay
[36] = Binding affinity to Bcl-xL/Bad (unknown origin) assessed as inhibition constant by fluorescence polarisation assay; set-up: species or system Homo sapiens
[37] = biological target: T3, Bcl-xL/BH3-interacting domain death agonist; assay: Inhibition of Bcl-xL/Bid complex (unknown origin); assay type: protein assay
[38] = biological target: T5, BCL2/BID; assay: Inhibition of Bcl-2/Bid (unknown origin); assay type: protein assay
[39] = biological target: T6, BCL2L2/BID; assay: Inhibition of Bcl-W/Bid (unknown origin); assay type: protein assay
[40] = biological target: BCL2L10/BID (Homo sapiens, UniProt P55957+Q9HD36); assay: Inhibition of Bcl-B/Bid (unknown origin); assay type: protein assay
[41] = biological target: T4, BCL2A1/BID; assay: Inhibition of Bfl-1/Bid (unknown origin); assay type: protein assay
[42] = biological target: T1, Induced myeloid leukemia cell differentiation protein Mcl-1/BH3-interacting domain death agonist; assay: Inhibition of Mcl-1/Bid (unknown origin); assay type: protein assay
[43] = tested on: OPM-2; assay: Cytotoxicity against human OPM-2 cells assessed as cell viability; assay type: functional, cell-based

T8 sequence (Q07817 whole entry, one chain of several): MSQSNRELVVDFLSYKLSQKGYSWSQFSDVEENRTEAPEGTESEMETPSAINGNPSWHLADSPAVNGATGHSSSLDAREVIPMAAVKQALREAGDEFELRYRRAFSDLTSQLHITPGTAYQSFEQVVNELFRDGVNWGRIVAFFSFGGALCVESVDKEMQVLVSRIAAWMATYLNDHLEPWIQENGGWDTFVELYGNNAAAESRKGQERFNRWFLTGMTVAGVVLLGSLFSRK
T3 sequence (Q07817 whole entry, one chain of several, the tested form may be a part): as the sequence (Q07817 whole entry, one chain of several) above
T1 sequence (Q07820 whole entry, one chain of several, the tested form may be a part): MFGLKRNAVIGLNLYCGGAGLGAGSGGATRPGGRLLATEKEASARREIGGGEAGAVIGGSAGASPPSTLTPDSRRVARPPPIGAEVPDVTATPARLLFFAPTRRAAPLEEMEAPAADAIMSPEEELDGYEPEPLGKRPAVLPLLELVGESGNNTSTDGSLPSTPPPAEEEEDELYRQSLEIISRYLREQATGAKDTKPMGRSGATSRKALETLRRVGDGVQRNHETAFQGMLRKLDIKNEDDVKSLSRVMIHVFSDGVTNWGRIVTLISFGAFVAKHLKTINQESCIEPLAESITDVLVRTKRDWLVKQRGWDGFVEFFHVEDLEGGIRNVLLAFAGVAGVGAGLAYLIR
T7 sequence (Q07820 whole entry, one chain of several): as the sequence (Q07820 whole entry, one chain of several, the tested form may be a part) above
T2 sequence (Q07820 whole entry, the tested form may be a part): as the sequence (Q07820 whole entry, one chain of several, the tested form may be a part) above
T5 sequence (P10415 whole entry, one chain of several, the tested form may be a part): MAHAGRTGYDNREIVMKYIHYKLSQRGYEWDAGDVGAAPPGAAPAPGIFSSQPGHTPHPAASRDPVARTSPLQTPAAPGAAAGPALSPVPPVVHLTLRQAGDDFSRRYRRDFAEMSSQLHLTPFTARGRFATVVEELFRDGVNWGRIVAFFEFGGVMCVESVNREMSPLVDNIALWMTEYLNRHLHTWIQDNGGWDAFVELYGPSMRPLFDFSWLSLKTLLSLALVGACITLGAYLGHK
Chain of BCL2L10/BID (Q9HD36 whole entry, one chain of several): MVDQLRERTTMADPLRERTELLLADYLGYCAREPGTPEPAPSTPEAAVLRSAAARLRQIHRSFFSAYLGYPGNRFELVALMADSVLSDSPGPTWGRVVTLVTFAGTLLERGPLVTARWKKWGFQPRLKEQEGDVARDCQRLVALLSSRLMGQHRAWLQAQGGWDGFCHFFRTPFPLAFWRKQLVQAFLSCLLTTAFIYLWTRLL
Chain of Bcl-2-like protein 1 (Q07817 whole entry): as the sequence (Q07817 whole entry, one chain of several) above
Chain of Bcl-xL/Bcl-2-like protein 11 (Q07817 whole entry, the tested form may be a part): as the sequence (Q07817 whole entry, one chain of several) above
Chain of Bcl-xL/Bcl-2-like protein 11 (O43521 whole entry, further chain, the tested form may be a part): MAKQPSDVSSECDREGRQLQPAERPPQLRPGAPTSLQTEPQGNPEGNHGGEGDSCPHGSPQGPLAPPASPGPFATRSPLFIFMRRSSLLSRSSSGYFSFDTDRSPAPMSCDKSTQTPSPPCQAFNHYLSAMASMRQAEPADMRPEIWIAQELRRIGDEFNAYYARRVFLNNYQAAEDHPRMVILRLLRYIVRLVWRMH
Chain of Induced myeloid leukemia cell differentiation protein Mcl-1/Bcl-2-like protein 11 (Q07820 whole entry): as the sequence (Q07820 whole entry, one chain of several, the tested form may be a part) above
Chain of Induced myeloid leukemia cell differentiation protein Mcl-1/Bcl-2-like protein 11 (O43521 whole entry, further chain): as the sequence (O43521 whole entry, further chain, the tested form may be a part) above
Chain of BCL2/BAD (Q92934 whole entry): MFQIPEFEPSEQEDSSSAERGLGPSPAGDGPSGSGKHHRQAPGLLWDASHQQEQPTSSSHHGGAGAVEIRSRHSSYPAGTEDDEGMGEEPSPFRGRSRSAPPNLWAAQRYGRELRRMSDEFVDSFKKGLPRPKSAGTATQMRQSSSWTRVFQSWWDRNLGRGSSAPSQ
Chain of BCL2/BAD (P10415 whole entry): as the sequence (P10415 whole entry, one chain of several, the tested form may be a part) above
Chain of Apoptosis regulator Bcl-2/Bcl-2 homologous antagonist/killer (P10415 whole entry, one chain of several): as the sequence (P10415 whole entry, one chain of several, the tested form may be a part) above
Chain of Apoptosis regulator Bcl-2 (P10415 whole entry): as the sequence (P10415 whole entry, one chain of several, the tested form may be a part) above

Q: With `CC1=C(C2=C(C)C(=O)c3c(cc(O)c(O)c3C(C)C)C2=O)C(=O)c2cc(O)c(O)c(C(C)C)c2C1=O` as the compound, how does the IC50 [1] read?
A: 25 nM

Q: And the Ki [2]?
A: 25000 nM

Q: What about the IC50 [3] of the same compound?
A: 660 nM

Q: With `O=C(CSc1nnc(-c2ccco2)c(-c2ccco2)n1)Nc1ccccc1` as the compound, how does the Ki [4] read?
A: 3200 nM

Q: What about the Ki [5] of the same compound?
A: 4900 nM

Q: For `O=C(O)CSc1cc(NS(=O)(=O)c2cccc(Br)c2)c2ccccc2c1O`, which Ki [6] is on record?
A: 490 nM

Q: What about the Ki [7] of the same compound?
A: 5330 nM

Q: What about the Ki [8] of the same compound?
A: 180 nM

Q: What about the Ki [9] of the same compound?
A: 23800 nM

Q: What about the Ki [10] of the same compound?
A: 33000 nM

Q: What about the Ki [11] of the same compound?
A: 8190 nM

Q: Which results are given for `CC(C)Oc1cc(C(=O)Nc2ccc(C(=O)Nc3ccc(C(=O)O)cc3OC(C)C)nc2OC(C)C)ccc1N`?
A: IC50 [12]: 394 nM; IC50 [13]: 10200 nM; Ki [14]: 179 nM

Q: For `O=C(O)c1cc2ccccc2n1S(=O)(=O)c1ccc(OCc2cccc(Cl)c2)cc1`, which IC50 [15] is on record?
A: 19200 nM

Q: What about the IC50 [16] of the same compound?
A: 9200 nM

Q: Which results are given for `CC(C)Cc1cc(-c2ccc(-c3ccc(OCC(=O)O)cc3CC(C)C)cc2Cc2ccccc2)ccc1OCCC(=O)O`?
A: IC50 [17]: 1500 nM; IC50 [18]: 4900 nM

Q: What does the source list for `O=C(Nc1ccccc1)C1=CN=c2s/c(=C\c3cn(Cc4ccccc4F)c4ccccc34)c(=O)n2C1c1ccc(F)cc1` (stereo not drawn)?
A: Ki [19]: 1640 nM; Ki [20]: 2670 nM; Ki [21]: 1050 nM

Q: What does the source list for `Cc1cc2c(O)c(-c3ccc4c(C(=O)NCC(C)c5ccccc5)c(O)c(O)cc4c3O)c(C)cc2c(C(=O)NCC(C)c2ccccc2)c1C` (stereo not drawn)?
A: IC50 [22]: 310 nM; IC50 [23]: 320 nM; IC50 [24]: 620 nM; IC50 [25]: 200 nM

Q: With `Cc1ccc(S(=O)(=O)/N=C2\C=C(Sc3nc[nH]n3)C(=O)c3ccccc32)cc1` as the compound, how does the IC50 [26] read?
A: 450 nM

Q: Which results are given for `O=C(O)C1C2CC(Sc3ccccc3[N+](=O)[O-])C(Cl)C2c2cc(Cl)cc3c2N1CC1CC=CC31` (stereo not drawn)?
A: Ki [27]: 530 nM; Ki [28]: 15000 nM; Ki [29]: ≥ 50000 nM

Q: What does the source list for `CC1=C[C@@H](/C=C(\C)c2ccc(C(=O)O)cc2)[C@]2(C(=O)O)C=C[C@@H](CCOC(=O)c3ccc(Oc4ccccc4)cc3)C[C@@H]2C1`?
A: Ki [30]: 700 nM; Ki [31]: 500 nM

Q: With `COc1ccc(-c2ccc(/C=C3\SC(=S)N([C@@H](Cc4ccccc4)C(=O)O)C3=O)cn2)cc1OC` as the compound, how does the Ki [32] read?
A: > 100000 nM

Q: And the Ki [33]?
A: 8000 nM

Q: What about the Kd [34] of the same compound?
A: > 750000 nM

Q: For `O=C(O[C@@H]1Cc2c(O)cc(O)cc2O[C@@H]1c1cc(O)c(O)c(O)c1)c1cc(O)c(O)c(O)c1` [EPIGALOCATECHIN GALLATE], which Ki [35] is on record?
A: 490 nM

Q: And the Ki [36]?
A: 335 nM

Q: What about the IC50 [37] of the same compound?
A: 590 nM

Q: What about the IC50 [38] of the same compound?
A: 450 nM

Q: What about the IC50 [39] of the same compound?
A: 2330 nM

Q: And the IC50 [40]?
A: 360 nM

Q: What about the IC50 [41] of the same compound?
A: 1790 nM

Q: What about the IC50 [42] of the same compound?
A: 920 nM

Q: For `O=C(O)C(O)c1ccccc1` (stereo not drawn) [MANDELIC ACID], which IC50 [43] is on record?
A: 19 nM
